The record followed here is PubChem BioAssay (NCI).

Some test systems named below: T-47D breast; SK-MEL-2 melanoma; K-562 leukemia; MDA-MB-435; NCI/ADR-RES ovarian; 786-0 renal; DU-145 prostate; OVCAR-3 ovarian; HOP-62 NSCLC; RXF 393 renal.
What all share (test): NCI tumour cell line growth inhibition, 48 h

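Growth conditions: 96-well plates. Treatment: test compound, 48 hours, 5 concentrations. Analysis: linear interpolation between bracketing concentrations; unreached endpoints set to highest concentration. GI50 marks 50% less growth. The concentration for full growth arrest is given as TGI.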 Where a SMILES comes first, the peptide text is derived from it. [ ]: non-standard residue; d: D form. The star is where a group is joined. mTyr = N[CH](Cc1cccc(O)c1)C(=O)O; Cbz = O=C(OCc1ccccc1)*; OBn = c1ccc(CO*)cc1

On to `CN(CCCNC(=O)c1nn(-c2ccc(Cl)cc2Cl)c2c1Cc1ccccc1-2)CCCNC(=O)c1nn(-c2ccc(Cl)cc2Cl)c2c1Cc1ccccc1-2`, for which the TGI was 3.76 µM in the experiment on T-47D breast; 3.2 µM in the experiment on SK-MEL-2 melanoma; 2.97 µM in the experiment with K-562 leukemia; 2.57 µM with MDA-MB-435; 3.55 µM in the experiment with NCI/ADR-RES ovarian; 3.21 µM with 786-0 renal. For the same compound, the results for the TGI in the experiment with DU-145 prostate, with OVCAR-3 ovarian and with HOP-62 NSCLC were 3.18 µM, 3.09 µM and 3.09 µM, respectively.
As to `O=C(CC(=O)Nc1ccccc1)N/N=C/c1cc(N=Nc2ccc(Br)cc2)ccc1O`, the TGI with T-47D breast, with K-562 leukemia, in the experiment on NCI/ADR-RES ovarian, in the experiment with 786-0 renal, in the experiment with DU-145 prostate and with HOP-62 NSCLC was over 10 µM each time.
As to `CCCc1ccc(NCc2cc(OC)c(OC)c(OC)c2)cc1`, the TGI with SK-MEL-2 melanoma is 44.2 µM; in the experiment with K-562 leukemia, 51.6 µM; with RXF 393 renal, 61.7 µM; with 786-0 renal it was 50.3 µM; in the experiment with OVCAR-3 ovarian, 54.4 µM; in the experiment with HOP-62 NSCLC, over 100 µM. Moreover, the GI50 in the experiment with OVCAR-3 ovarian is 19 µM.
For `Nc1ccc(CCN2CCN(CCCc3ccccc3)CC2)cc1`, the TGI in the experiment with T-47D breast is 95.8 µM; with SK-MEL-2 melanoma, over 100 µM; in the experiment with K-562 leukemia, over 100 µM; in the experiment with MDA-MB-435, over 100 µM; in the experiment with NCI/ADR-RES ovarian, over 100 µM; in the experiment on 786-0 renal it was over 100 µM. In addition, the TGI in the experiment on DU-145 prostate, with OVCAR-3 ovarian and with HOP-62 NSCLC was over 100 µM in each case.
As to `O=C(O)CNC(=O)c1c2ccccc2nc2ccccc12`, the TGI in the experiment on SK-MEL-2 melanoma, with K-562 leukemia, with MDA-MB-435, with NCI/ADR-RES ovarian, with 786-0 renal and in the experiment with DU-145 prostate was over 100 µM throughout. For the same compound, the TGI in the experiment on OVCAR-3 ovarian and with HOP-62 NSCLC was over 100 µM throughout.
For the compound `[N-]=[N+]=C1C(=O)C2CC3CC(C2)CC1C3`, the TGI in the experiment with SK-MEL-2 melanoma, in the experiment with K-562 leukemia, in the experiment with RXF 393 renal, in the experiment with 786-0 renal, in the experiment on OVCAR-3 ovarian and in the experiment with HOP-62 NSCLC was over 100 µM throughout.
With `COc1cccc(NC(=O)C(C#N)=C(SC)SC)c1`, the TGI in the experiment on SK-MEL-2 melanoma, in the experiment with K-562 leukemia, with RXF 393 renal, in the experiment with MDA-MB-435, in the experiment with NCI/ADR-RES ovarian and in the experiment with 786-0 renal was over 100 µM in each case. In the experiment with HOP-62 NSCLC, this compound returned a TGI of over 100 µM.
In the case of `Nc1nc(Cl)c(N)c(NCC2(CO)CC(CCCc3ccccc3)C2)n1` (centres undefined), the TGI in the experiment with T-47D breast is over 100 µM; in the experiment with SK-MEL-2 melanoma, 30.6 µM; in the experiment on K-562 leukemia, over 100 µM; in the experiment on MDA-MB-435, over 100 µM; with NCI/ADR-RES ovarian, 63.1 µM; with 786-0 renal it was over 51.7 µM. Also, the TGI with DU-145 prostate was over 100 µM; in the experiment on OVCAR-3 ovarian, over 67.2 µM; with HOP-62 NSCLC it was over 100 µM.
On to `COc1ccc(/C=C2\CN(C)C/C(=C\c3ccc(OC)c(OC)c3OC)C2=O)c(OC)c1OC`, for which the TGI in the experiment with T-47D breast is 6.22 µM; with SK-MEL-2 melanoma, 2.4 µM; with RXF 393 renal it was 0.342 µM; with MDA-MB-435, 0.0541 µM; in the experiment on 786-0 renal it was 0.806 µM; in the experiment on DU-145 prostate it was 1.39 µM. Besides, the TGI with OVCAR-3 ovarian amounted to 0.335 µM; in the experiment with HOP-62 NSCLC it was 0.84 µM.
For `CCOC(=O)[C@H](Cc1ccc(O)cc1)N=C1[C@H]2CCC[C@]1(O)[C@@](C)([N+](=O)[O-])C2`, the TGI in the experiment on K-562 leukemia, in the experiment with RXF 393 renal, in the experiment with MDA-MB-435, with NCI/ADR-RES ovarian, in the experiment on 786-0 renal and in the experiment with DU-145 prostate was over 100 µM each time. The compound further displayed a TGI in the experiment on OVCAR-3 ovarian of over 100 µM.
For the compound `COc1cc(/C=C(/C#N)C(N)=O)ccc1O`, the TGI with SK-MEL-2 melanoma, with K-562 leukemia, in the experiment on NCI/ADR-RES ovarian, with OVCAR-3 ovarian and in the experiment with HOP-62 NSCLC was over 100 µM each time.
Turning to `CC(=O)OCC1OC(n2c(=O)[nH]c(=O)c3sccc32)C(Br)C1OC(C)=O` (centres undefined), the TGI in the experiment on SK-MEL-2 melanoma, with K-562 leukemia, in the experiment with RXF 393 renal, in the experiment on MDA-MB-435, with NCI/ADR-RES ovarian and with 786-0 renal was over 100 µM throughout. For the same compound, the TGI in the experiment on DU-145 prostate, in the experiment on OVCAR-3 ovarian and in the experiment on HOP-62 NSCLC was over 100 µM in each case.
For `CC(NC(C)(C)C)C(=O)c1cccc(Cl)c1` (centres undefined), the TGI with SK-MEL-2 melanoma, in the experiment on K-562 leukemia, with RXF 393 renal, with 786-0 renal, in the experiment with OVCAR-3 ovarian and in the experiment on HOP-62 NSCLC was over 100 µM in each case.
With `COc1ccc(-n2cnc3c(NC(CCSC)C(=O)O)ncnc32)cc1` (centres undefined), the TGI with T-47D breast, in the experiment with SK-MEL-2 melanoma, in the experiment on K-562 leukemia, in the experiment on MDA-MB-435, in the experiment on NCI/ADR-RES ovarian and with 786-0 renal was over 100 µM each time. Besides, the TGI with DU-145 prostate, in the experiment on OVCAR-3 ovarian and with HOP-62 NSCLC was over 100 µM each time.
Regarding `CCN(CC)Cc1sc2nc3ccccc3n2c1-c1ccc(OC)cc1`, the TGI in the experiment with SK-MEL-2 melanoma was over 100 µM; in the experiment on K-562 leukemia, 22.7 µM; in the experiment with RXF 393 renal, 97 µM; in the experiment on MDA-MB-435, 12.9 µM; with NCI/ADR-RES ovarian, 90.8 µM; in the experiment with 786-0 renal, over 100 µM. For the same compound, the TGI in the experiment on DU-145 prostate, with OVCAR-3 ovarian and in the experiment with HOP-62 NSCLC was over 100 µM throughout.
`COc1cc2c(cc1OC)C1(c3ccc(Cl)cc3)ON=C(c3ccccc3)N1CS2` (centres undefined): the TGI in the experiment on SK-MEL-2 melanoma, in the experiment with K-562 leukemia, in the experiment on RXF 393 renal, with 786-0 renal, in the experiment on OVCAR-3 ovarian and in the experiment on HOP-62 NSCLC was over 100 µM throughout.
On to `CCC1(COC(NC(=O)c2ccccc2)(C(F)(F)F)C(F)(F)F)COC1`, for which the TGI in the experiment on T-47D breast, in the experiment with SK-MEL-2 melanoma, in the experiment on K-562 leukemia, in the experiment on RXF 393 renal, with MDA-MB-435 and with NCI/ADR-RES ovarian was over 100 µM each time. For the same compound, the TGI in the experiment with 786-0 renal is over 100 µM.
Turning to `CCNC1=C(NC(=O)CC)C(=O)c2ccccc2C1=O`, the TGI in the experiment on T-47D breast, with K-562 leukemia, with RXF 393 renal, in the experiment with NCI/ADR-RES ovarian, in the experiment on 786-0 renal and in the experiment with DU-145 prostate was over 100 µM in each case. The TGI in the experiment on OVCAR-3 ovarian and in the experiment on HOP-62 NSCLC was over 100 µM each time.
As for `O=C(Nc1cccc(F)c1)c1cc2ccc(O)cc2oc1=Nc1ccccc1F`, the TGI in the experiment on T-47D breast was 12.1 µM; in the experiment with SK-MEL-2 melanoma it was 18.7 µM; in the experiment with K-562 leukemia, over 100 µM; with MDA-MB-435 it was 14.2 µM; in the experiment on NCI/ADR-RES ovarian it was 10.3 µM; in the experiment on 786-0 renal it was 17.1 µM. For the same compound, the values for the TGI in the experiment on DU-145 prostate, in the experiment on OVCAR-3 ovarian and in the experiment with HOP-62 NSCLC were 15.1 µM, 14.7 µM and 24.6 µM, respectively.
Consider `COc1cc(C(c2ccc3c(c2)OCO3)N2C(=O)CCC2C(=O)O)cc(OC)c1OC` (centres undefined), for which the TGI in the experiment with T-47D breast, with SK-MEL-2 melanoma, in the experiment with K-562 leukemia, in the experiment on MDA-MB-435, in the experiment on NCI/ADR-RES ovarian and in the experiment with 786-0 renal was over 100 µM in each case. Further, the TGI in the experiment with DU-145 prostate, in the experiment with OVCAR-3 ovarian and in the experiment on HOP-62 NSCLC was over 100 µM each time.
For the compound `CCOC(=O)CSc1nnc(C(Sc2nc(-c3ccccc3)c(-c3ccccc3)[nH]2)C(C)C)n1-c1ccccc1` (centres undefined), the TGI in the experiment with T-47D breast was over 100 µM; with SK-MEL-2 melanoma, 22.9 µM; in the experiment with K-562 leukemia it was over 100 µM; in the experiment with RXF 393 renal it was 67.1 µM; with NCI/ADR-RES ovarian, 84 µM; with 786-0 renal, over 31.6 µM. Also, the figures for the TGI in the experiment on DU-145 prostate, in the experiment with OVCAR-3 ovarian and in the experiment on HOP-62 NSCLC were over 100 µM, over 10 µM and over 10 µM, respectively.
In the case of `COC(=O)CC1NC(=O)C1C1(C)OCCO1` (centres undefined), the TGI in the experiment on SK-MEL-2 melanoma, with RXF 393 renal, in the experiment on 786-0 renal, in the experiment on OVCAR-3 ovarian and in the experiment on HOP-62 NSCLC was over 100 µM each time.
Turning to `COc1cc(-c2cc(-c3cc([N+](=O)[O-])c(/C=N/NC(=O)c4ccncc4)o3)ccc2OC)ccc1C`, the TGI in the experiment on SK-MEL-2 melanoma, in the experiment on K-562 leukemia, in the experiment with RXF 393 renal, in the experiment on 786-0 renal, in the experiment with OVCAR-3 ovarian and in the experiment with HOP-62 NSCLC was over 100 µM in each case.
With `O=C(N/N=C/c1cc(Cl)cc(Cl)c1O)c1ccccc1O`, the GI50 in the experiment with SK-MEL-2 melanoma is 1.39 µM. Moreover, the TGI in the experiment with SK-MEL-2 melanoma is 6.87 µM; in the experiment on K-562 leukemia, over 100 µM; with RXF 393 renal, 4.97 µM; in the experiment with OVCAR-3 ovarian, 1.65 µM.
Regarding `COC(=O)C(Cc1cccc(O)c1)NC(=O)C(CC(=O)OCc1ccccc1)NC(=O)OCc1ccccc1` (centres undefined) (Cbz-Asp(OBn)-[mTyr]-OMe; configuration not given here), the TGI with T-47D breast is 59.5 µM; with SK-MEL-2 melanoma, over 100 µM; in the experiment on K-562 leukemia it was over 100 µM; in the experiment on RXF 393 renal, over 100 µM; in the experiment with 786-0 renal, over 100 µM; with HOP-62 NSCLC it was over 100 µM.
